Laboratory results as given in US7060722B2, “Proline derivatives and use thereof as drugs” (Mitsubishi Pharma Corporation, priority 2000, dated 2006).
Where a name gives a salt, the structure may show the parent alone.

Key:
Rat plasma DPP-IV = biological target: T1, Rat plasma DPP-IV (Rattus norvegicus, UniProt P14740); assay: Plasma DPP-IV inhibitory activity, fluorescence assay (rat plasma); type: biochemical; conditions: rat plasma (10-fold diluted), Gly-Pro-MCA substrate, room temperature 60 min
T1 construct: from tissue; host or cells: rat plasma
Method: (§1) The plasma DPP-IV inhibitory activity of human and rat was measured by the fluorescence assay method.
(§2) The inhibitory rate relative to the solvent addition group was calculated and IC50 values were determined by logistic analysis.

Human plasma DPP-IV = biological target: T2, Human plasma DPP-IV (Homo sapiens, UniProt P27487); assay: Plasma DPP-IV inhibitory activity, fluorescence assay (human plasma); type: biochemical; conditions: human plasma (10-fold diluted), Gly-Pro-MCA substrate, room temperature 60 min
T2 construct: from tissue; host or cells: human plasma
Method: as §1, §2

T1 sequence (P14740 37-767 limits assumed): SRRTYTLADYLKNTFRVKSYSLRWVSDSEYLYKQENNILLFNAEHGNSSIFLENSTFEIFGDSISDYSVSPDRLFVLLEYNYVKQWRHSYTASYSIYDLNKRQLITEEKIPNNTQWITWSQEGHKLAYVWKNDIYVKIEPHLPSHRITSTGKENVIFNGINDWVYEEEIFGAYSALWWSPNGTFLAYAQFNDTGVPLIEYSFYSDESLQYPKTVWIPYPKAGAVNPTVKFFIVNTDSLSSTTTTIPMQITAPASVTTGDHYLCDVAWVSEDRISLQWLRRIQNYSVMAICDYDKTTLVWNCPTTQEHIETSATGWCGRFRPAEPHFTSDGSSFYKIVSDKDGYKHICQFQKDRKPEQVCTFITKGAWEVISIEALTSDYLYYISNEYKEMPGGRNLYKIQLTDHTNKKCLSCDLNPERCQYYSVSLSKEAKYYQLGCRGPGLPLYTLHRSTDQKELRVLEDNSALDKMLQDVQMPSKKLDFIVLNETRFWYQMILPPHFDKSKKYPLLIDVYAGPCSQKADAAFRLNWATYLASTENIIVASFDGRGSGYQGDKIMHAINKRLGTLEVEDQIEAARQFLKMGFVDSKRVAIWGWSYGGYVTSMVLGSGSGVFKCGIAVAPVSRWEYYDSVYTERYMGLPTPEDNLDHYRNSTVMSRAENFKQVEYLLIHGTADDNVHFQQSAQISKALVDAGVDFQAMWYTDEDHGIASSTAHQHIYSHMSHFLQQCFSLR
T2 sequence (P27487 39-766 limits assumed): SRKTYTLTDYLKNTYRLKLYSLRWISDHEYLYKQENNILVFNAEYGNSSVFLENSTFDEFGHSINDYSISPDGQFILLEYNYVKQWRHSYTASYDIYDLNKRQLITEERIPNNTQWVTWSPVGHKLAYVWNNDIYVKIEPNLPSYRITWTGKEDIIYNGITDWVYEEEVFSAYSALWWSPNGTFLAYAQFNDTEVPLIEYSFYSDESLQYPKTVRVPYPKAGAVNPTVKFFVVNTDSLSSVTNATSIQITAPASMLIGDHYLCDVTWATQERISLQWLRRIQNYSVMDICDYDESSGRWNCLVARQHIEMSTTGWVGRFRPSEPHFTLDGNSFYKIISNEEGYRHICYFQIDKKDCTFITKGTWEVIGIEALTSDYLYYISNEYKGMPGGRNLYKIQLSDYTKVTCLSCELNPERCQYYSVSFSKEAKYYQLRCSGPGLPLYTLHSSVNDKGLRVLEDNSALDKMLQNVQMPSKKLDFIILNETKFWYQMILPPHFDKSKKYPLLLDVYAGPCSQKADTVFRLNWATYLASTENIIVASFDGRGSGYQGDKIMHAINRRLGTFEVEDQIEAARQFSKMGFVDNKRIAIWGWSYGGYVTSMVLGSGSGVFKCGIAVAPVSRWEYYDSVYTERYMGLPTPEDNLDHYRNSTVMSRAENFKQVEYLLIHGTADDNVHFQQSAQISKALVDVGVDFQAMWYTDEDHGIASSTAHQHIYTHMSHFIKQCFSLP

IC50 (Rat plasma DPP-IV)	IC50 (Human plasma DPP-IV)	Structure (SMILES)
0.64 nM	0.51 nM	N#C[C@@H]1CCCN1C(=O)[C@@H]1C[C@H](Nc2ncccn2)CN1 [Example 24, (S)-2-cyano-1-[(2S,4S)-4-(2-pyrimidinyl)amino-2-pyrrolidinylcarbonyl]pyrrolidine hydrochloride]
0.22 nM	0.3 nM	N#C[C@@H]1CCCN1C(=O)[C@@H]1C[C@H](NCc2ccc([N+](=O)[O-])cc2)CN1 [Example 29, (S)-2-cyano-1-[(2S,4S)-4-(4-nitrophenylmethyl)amino-2-pyrrolidinylcarbonyl]pyrrolidine dihydrochloride]
0.55 nM	1.1 nM	CCOC(=O)CN(CC(=O)OCC)[C@@H]1CN[C@H](C(=O)N2CCC[C@H]2C#N)C1 [Example 39, (S)-2-cyano-1-{(2S,4S)-4-[N,N-bis(ethoxycarbonylmethyl)amino]-2-pyrrolidinylcarbonyl}pyrrolidine dihydrochloride]
9.4 nM	6.8 nM	CN(Cc1cccc(C#N)c1)[C@@H]1CN[C@H](C(=O)N2CCSC2)C1 [Example 99, 3-{(2S,4S)-4-[N-(3-cyanophenylmethyl)-N-methylamino]-2-pyrrolidinylcarbonyl}-1,3-thiazolidine dihydrochloride]
2.1 nM	1.5 nM	O=C([C@@H]1C[C@H](N2CCC(c3cc4ccccc4s3)CC2)CN1)N1CCSC1 [Example 143, 3-{(2S,4S)-4-[4-(2-benzo[b]thienyl)piperidino]-2-pyrrolidinylcarbonyl}-1,3-thiazolidine dihydrochloride]
4.2 nM	3.7 nM	O=C([C@@H]1C[C@H](N2CCN(c3ccc([N+](=O)[O-])cn3)CC2)CN1)N1CCCC1 [Example 186, 1-{(2S,4S)-4-[4-(5-nitro-2-pyridyl)-1-piperazinyl]-2-pyrrolidinylcarbonyl}pyrrolidine trihydrochloride]
0.75 nM	0.45 nM	O=C(O)c1ccc(N2CCN([C@@H]3CN[C@H](C(=O)N4CCSC4)C3)CC2)nc1 [Example 212, 3-{(2S,4S)-4-[4-(5-carboxy-2-pyridyl)-1-piperazinyl]-2-pyrrolidinylcarbonyl}-1,3-thiazolidine trihydrochloride]
0.34 nM	0.33 nM	O=C([C@@H]1C[C@H](N2CCN(c3nc4ccc(C(F)(F)F)cc4s3)CC2)CN1)N1CCSC1 [Example 242, 3-{(2S,4S)-4-[4-(6-trofluoromethyl-2-benzothiazolyl)-1-piperazinyl]-2-pyrrolidinylcarbonyl}-1,3-thiazolidine dihydrochloride]
1.9 nM	1.1 nM	O=C([C@@H]1C[C@H](N2CCC(c3nn(CCN4CCOCC4)c(=O)o3)CC2)CN1)N1CCSC1 [Example 296, 3-((2S,4S)-4-{4-[4-(2-morpholinoethyl)-5-oxo-4,5-dihydro-1,3,4-oxadiazol-2-yl]piperidino}-2-pyrrolidinylcarbonyl)-1,3-thiazolidine trihydrochloride]
1.1 nM	0.61 nM	O=C([C@@H]1C[C@H](N2CCC(c3nc4ccc(F)cc4[nH]3)CC2)CN1)N1CCSC1 [Example 303, 3-{(2S,4S)-4-[4-(5-fluoro-2-benzimidazolyl)piperidino]-2-pyrrolidinylcarbonyl}-1,3-thiazolidine trihydrochloride]

Structure (SMILES)	IC50 (Rat plasma DPP-IV)	IC50 (Human plasma DPP-IV)
N#C[C@@H]1CCCN1C(=O)[C@@H]1C[C@H](Nc2ccc(C(F)(F)F)cn2)CN1 [Example 20, (S)-2-cyano-1-[(2S,4S)-4-(5-trifluoromethyl-2-pyridyl)amino-2-pyrrolidinylcarbonyl]pyrrolidine 2 trifluoroacetate]	0.41 nM	0.54 nM
